Data reported in ChEMBL document CHEMBL1148014, “Antileukotrienic N-arylethyl-2-arylacetamides in the treatment of ulcerative colitis” (Eur J Med Chem, 2007).
Active and inactive are the calls of the source. The calls are words filed in the database; no cut-off is given here.

Experiments:
Mus musculus [1] = species on record: Mus musculus; assay: animal or person; conditions: po, read-out: Inhibition
Rattus norvegicus = species on record: Rattus norvegicus; assay: animal or person; conditions: read-out: Inhibition
[2] = octanol/water
Description: Lipophilicity, log K of the compound

Leukotriene B4 receptor = Leukotriene B4 receptor (Homo sapiens, UniProt Q9NPC1+Q15722)
Description: Displacement of [3H]LTB4 from LTB4 receptor in guinea pig spleen membrane

physchem = conditions: octanol/water
Description: Partition coefficient, log P of the compound

Mus musculus [3] = species on record: Mus musculus; assay: animal or person; conditions: po, read-out: Inhibition; remark: listed apart in the source
Mus musculus [4] = species on record: Mus musculus; assay: Antiinflammatory activity against dextran sodium sulfate-induced ulcerative colitis in BALB/c mouse assessed as large intestinal bleeding; assay type: functional, organism-based
Mus musculus [5] = species on record: Mus musculus; assay: Antiinflammatory activity against dextran sodium sulfate-induced ulcerative colitis in BALB/c mouse assessed as stool consistency; assay type: functional, organism-based
Mus musculus [6] = assay: Stimulation of hyperaemia in mouse at 200 mg/kg, po; assay type: functional

Structure (SMILES)	log K [2]	IC50 (Leukotriene B4 receptor) [nM]	logP (physchem)	inhibition in vivo at 200 mg/kg (Mus musculus [1]) [%]	inhibition in vivo at 100 mg/kg (Rattus norvegicus) [%]	inhibition in vivo at 200 mg/kg (Mus musculus [3]) [%]	Activity (Mus musculus [4])	Activity (Mus musculus [5])	Activity (Mus musculus [6]) [%]
CC(c1cc2ccccc2s1)N(O)C(N)=O (stereo not given) [ZILEUTON]				13	46				
COc1cc(CC(=O)O)ccc1OCCCOc1ccc(CC(=O)N(C)CCc2ccc(Br)cc2)cc1	0.193		5.62		3	38			
COc1cc(CC(=O)O)ccc1OCCCCOc1ccc(CC(=O)N(C)CCc2ccc(Br)cc2)cc1	0.354	1900	6.11		27	38	Active	Active	
CN(CCc1ccccc1)C(=O)Cc1ccc(OCCCOc2ccc(CC(=O)O)cc2)cc1	0.166	18000	5.16		39	20			
Cc1ccc(CCN(C)C(=O)Cc2ccc(OCCCCOc3ccc(CC(=O)O)cc3)cc2)cc1	0.471	660	6.2			20			
CN(CCc1ccccc1)C(=O)Cc1ccc(OCCCCOc2ccc(CC(=O)O)cc2)cc1	0.287	4700	5.65		30	45			
Cc1cccc(CCN(C)C(=O)Cc2ccc(OCCCCOc3ccc(CC(=O)O)cc3)cc2)c1	0.47	1100	6.2		14	44			

Further lines, with some results ahead:

log K [2]	IC50 (Leukotriene B4 receptor) [nM]	logP (physchem)	Structure (SMILES)	inhibition in vivo at 200 mg/kg (Mus musculus [1]) [%]	inhibition in vivo at 100 mg/kg (Rattus norvegicus) [%]	inhibition in vivo at 200 mg/kg (Mus musculus [3]) [%]	Activity (Mus musculus [4])	Activity (Mus musculus [5])	Activity (Mus musculus [6]) [%]
0.253	2400	5.81	CN(CCc1ccccc1)C(=O)Cc1ccc(OCCCOc2ccc(CC(=O)O)cc2Cl)cc1		12	20			
0.364	1200	6.3	CN(CCc1ccccc1)C(=O)Cc1ccc(OCCCCOc2ccc(CC(=O)O)cc2Cl)cc1		32	23	inactive	inactive	
0.013	67000	4.73	COc1cc(CC(=O)O)ccc1OCCCOc1ccc(CC(=O)N(C)CCc2ccccc2)cc1			14			
0.089		5.44	O=C(O)Cc1ccc(OCCCCOc2ccc(CC(=O)NCCc3ccccc3)cc2)cc1			23			
0.12	8600	5.22	COc1cc(CC(=O)O)ccc1OCCCCOc1ccc(CC(=O)N(C)CCc2ccccc2)cc1		0	21			
-0.079		5.01	COc1cc(CC(=O)O)ccc1OCCCCOc1ccc(CC(=O)NCCc2ccccc2)cc1			23			7.7
